Experimental data reported in article PMC10354055, “An optimized Nurr1 agonist provides disease-modifying effects in Parkinson’s disease models” (Nature Communications, 2023).
Values joined by “and” are separate entries in the source; they are usually repeats but may differ in a detail not shown here. Equal values may be shown once.

Experiments:
N27-A cells [1] = test: Autophagolysosome (APL) formation assay, mRFP-GFP-LC3, N27-A cells; type: cell-based, rat; conditions: Figure 3b; mRFP-GFP-LC3; individual cells (30 per treatment)
Experimental: (§1) HeLa and N27-A cells were transfected with tandem mRFP-GFP-LC3 (Addgene) plasmid using Lipofectamine 2000 (Invitrogen) in 24-well plates. After 24 h, cells were incubated in starvation medium (Earle’s Balanced Salt Solution, EBSS; Lonza) containing bafilomycin A1 (BafA1, 10 nM), CQ (20 µM), or 4A7C-301 (1 µM) for 6 h and then fixed with 4% formaldehyde for fluorescence detection. Images were taken using a KEYENCE microscope and red (mRFP) LC3 dots and yellow (mRFP+GFP) LC3 dots were counted from three independent wells for each treatment group. 10 cells were randomly selected and counted from each well and a total of 30 cells were analyzed for each treatment group in both HeLa and N27-A cells.

N27-A cells [2] = test: Lysosomal pH detection, LysoSensor, N27-A cells; type: cell-based, rat
Experimental: (§2) Lysosomal pH was detected as previously described. Briefly, after incubation in EBSS containing BafA1 (10 nM), CQ (20 µM), or 4A7C-301 (1 µM) for 6 h, HeLa and N27-A cells were treated with LysoSensor™ Yellow/Blue DND-160 (5 µM; Life Technology) for 45 min, followed by 2 washes in HEPES buffer (Gibco). Fluorescence images at excitation/emission wavelengths of 360/460 nm and 470/525 nm were taken immediately using a 400 nm dichroic mirror (KEYENCE). The ratio of fluorescence intensities (F360/470) were measured and calculated manually using ImageJ for each cell. The average pH from measuring 5 cells from each of three wells for each treatment group in both HeLa and N27-A cells was calculated by fitting the F360/470 values to a plotted pH calibration curve with KCl/NaCl buffered from pH 3.5 to 7.0 using GraphPad Prism (Version 8.0.2).

HeLa cells [3] = test: Autophagic flux, Western blot LC3B and p62, HeLa cells; type: cell-based; conditions: for Relative LC3B-II experession (normalized to β-actin): Supplementary Figure S7f; for Relative p62 experession (normalized to β-actin): Supplementary Figure S7g
Experimental: (§3) Experiments were confirmed by duplicate measurements of the same sample. Quantification of immunoreactive bands was performed using ImageJ software (NIH, Bethesda, MD, USA) and expressed as a relative ratio against β-actin.
(§4) The band intensities were quantified using ImageJ and normalized against β-actin.

HeLa cells [4] = test: Autophagolysosome (APL) formation assay, mRFP-GFP-LC3, HeLa cells; type: cell-based; conditions: EBSS, BafA1 10 nM, CQ 20 µM, 4A7C-301 1 µM
Experimental: Nurr1 transactivity was normalized to β-galactosidase activity.
as §1

HeLa cells [5] = test: Lysosomal pH detection, LysoSensor, HeLa cells; type: cell-based
Experimental: as §2

N27-A cells [6] = test: Autophagic flux, Western blot LC3B and p62, N27-A cells; type: cell-based, rat; conditions: individual replicates
Experimental: as §3, §4

Structure (SMILES): CO/C1=C\C(C)=C\[C@@H](C)[C@@H](O)[C@@H](C)C/C(C)=C/C=C/[C@H](OC)[C@@H]([C@@H](C)[C@@H](O)[C@H](C)[C@@]2(O)C[C@@H](O)[C@H](C)[C@@H](C(C)C)O2)OC1=O [BafA1, bafilomycin A1]
- LC3 dots/cell, Red LC3 dots (N27-A cells [1]): 1 dots/cell (14×) and 2 dots/cell (6×) and 0 dots/cell (8×) and 5 dots/cell and 3 dots/cell
- LC3 dots/cell, Yellow LC3 dots (N27-A cells [1]): 28 dots/cell (2×) and 29 dots/cell (3×) and 21 dots/cell and 37 dots/cell (2×) and 20 dots/cell and 41 dots/cell (2×) and 27 dots/cell (2×) and 31 dots/cell (6×) and 18 dots/cell and 32 dots/cell and 40 dots/cell (2×) and 38 dots/cell and 33 dots/cell and 36 dots/cell and 24 dots/cell and 22 dots/cell and 30 dots/cell and 23 dots/cell
- Lysosomal pH (N27-A cells [2]; Figure 3d, individual replicates): 6.143 and 6.404 and 6.371 and 6.241 and 6.729 and 6.827 and 6.567 and 6.11 and 6.469 and 6.925 and 6.664 and 6.078 and 6.045
- lysosomal pH (in words) (N27-A cells [2]; N27-A, BafA1 10 nM, CQ 20 µM, 4A7C-301 1 µM): significantly increased
- autophagic flux (in words) (HeLa cells [3]; HeLa, LC3B-II and p62): failed to terminate
- Relative LC3B-II experession (normalized to β-actin) (HeLa cells [3]; time 0h): 0.339 and 0.384 and 0.423
- Relative LC3B-II experession (normalized to β-actin) (HeLa cells [3]; time 0.5h): 0.689 and 0.867 and 0.926
- Relative LC3B-II experession (normalized to β-actin) (HeLa cells [3]; time 1h): 0.885 and 1.051 and 1.126
- Relative LC3B-II experession (normalized to β-actin) (HeLa cells [3]; time 2h): 0.981 and 1.172 and 1.156
- Relative LC3B-II experession (normalized to β-actin) (HeLa cells [3]; time 4h): 1.098 and 1.172 and 1.288
- Relative p62 experession (normalized to β-actin) (HeLa cells [3]; time 0h): 0.909 and 0.809 and 0.904
- Relative p62 experession (normalized to β-actin) (HeLa cells [3]; time 0.5h): 0.781 and 0.847 and 0.974
- Relative p62 experession (normalized to β-actin) (HeLa cells [3]; time 1h): 0.754 and 0.822 and 0.940
- Relative p62 experession (normalized to β-actin) (HeLa cells [3]; time 2h): 0.804 and 0.850 and 0.987
- Relative p62 experession (normalized to β-actin) (HeLa cells [3]; time 4h): 0.978 and 0.992 and 1.169
- APL formation / autophagy (in words) (HeLa cells [4]): completely inhibited
- lysosomal pH (in words) (HeLa cells [5]; HeLa, BafA1 10 nM, CQ 20 µM, 4A7C-301 1 µM): significantly increased
- Lysosomal pH (HeLa cells [5]; Supplementary Figure S7d, individual replicates): 6.632 and 6.371 and 6.762 and 6.208 and 6.436 and 6.697 and 6.241 and 7.055 and 6.469 and 6.827 and 6.045
- Relative LC3B-II experession (normalized to β-actin) (N27-A cells [6]; Figure 3f, w/ MPP+, 0h): 0.733 and 0.699 and 0.753
- Relative LC3B-II experession (normalized to β-actin) (N27-A cells [6]; Figure 3f, w/ MPP+, 4h): 1.710 and 1.577 and 1.762
- Relative LC3B-II experession (normalized to β-actin) (N27-A cells [6]; Figure 3f, w/o MPP+, 0h): 0.546 and 0.525 and 0.431
- Relative LC3B-II experession (normalized to β-actin) (N27-A cells [6]; Figure 3f, w/o MPP+, 4h): 1.603 and 1.576 and 1.411
- Relative LC3B-II experession (normalized to β-actin) (N27-A cells [6]; Figure 3g, w/ MPP+, 0h): 1.449 and 1.354 and 1.694
- Relative LC3B-II experession (normalized to β-actin) (N27-A cells [6]; Figure 3g, w/ MPP+, 4h): 1.439 and 1.341 and 1.659
- Relative LC3B-II experession (normalized to β-actin) (N27-A cells [6]; Figure 3g, w/o MPP+, 0h): 1.447 and 1.262 and 1.249
- Relative LC3B-II experession (normalized to β-actin) (N27-A cells [6]; Figure 3g, w/o MPP+, 4h): 1.807 and 1.586 and 1.554
